Patent US10294202B2, “Pyrrolidinones as herbicides” (FMC Corporation, priority 2013, dated 2019)

Legend:
lambsquarters = test: Test C pre-/postemergence herbicide test; format: in vivo, Chenopodium album
Procedure, shortened: (§1)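 Herbicidal effect was judged by eye 13 to 15 days after treatment in the greenhouse, using a 0–100 scale against controls. Chemicals in a non-phytotoxic solvent with surfactant were sprayed onto planted loam/sand soil or onto plants 2 to 18 cm tall in a peat-based growing medium.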

galium = test: Test C pre-/postemergence herbicide test; format: in vivo, Galium aparine; details: Preemergence; for Plant response rating (scale of 0 to 100), Galium: 250 g ai/ha
Procedure, shortened: as §1

blackgrass = test: Test A postemergence herbicide test; format: in vivo, Alopecurus myosuroides
Procedure, shortened: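 Plants at the one- to two-leaf stage, 2–10 cm tall, grown in loam/sand pots, received postemergence sprays of the test chemicals. After about 10 days in the greenhouse, injury was scored visually against untreated controls on a 0–100 scale (0 none, 100 complete control).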

barnyardgrass [1] = test: Test A pre-/postemergence herbicide test; format: in vivo, Echinochloa crus-galli
Procedure, shortened: (§2)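 Both application timings used compounds in a non-phytotoxic solvent plus surfactant. Pre-emergence: soil sprayed directly after seeding into loam/sand. Post-emergence: foliage of 2–10 cm seedlings (1–2 leaves) sprayed. Injury rated ~10 days later, 0–100.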

corn = test: Test A pre-/postemergence herbicide test; format: in vivo, Zea mays; details: Postemergence
Procedure, shortened: as §2

kochia = test: Test A pre-/postemergence herbicide test; format: in vivo, Kochia scoparia
Procedure, shortened: as §2

barnyardgrass [2] = test: Test B flooded paddy test; format: in vivo, Echinochloa crus-galli; details: 500 g ai/ha, Flood; scale of 0 to 100 where 0 is no effect and 100 is complete control
Procedure, shortened: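 First, plants reach the 2-leaf stage; next, pots are flooded to 3 cm and compound is delivered into the water; finally, after 13 to 15 greenhouse days at constant depth, injury is graded visually from 0 to 100 against controls.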

[3] = Postemergence, 31 g ai/ha, scale 0 to 100 (0 no effect, 100 complete control)
[4] = Postemergence, 62 g ai/ha, scale 0 (no effect) to 100 (complete control)
[5] = Postemergence, 125 g ai/ha, scale 0 to 100 (0 no effect, 100 complete control)
[6] = Postemergence, 250 g ai/ha, scale 0 to 100 (0 no effect, 100 complete control)
[7] = Preemergence, 31 g ai/ha, scale 0 to 100, 0 is no effect and 100 is complete control
[8] = Preemergence, 62 g ai/ha, scale 0 to 100 (0 no effect, 100 complete control)
[9] = Preemergence, 125 g ai/ha, scale 0 to 100 (0 no effect, 100 complete control)
[10] = 31 g ai/ha, scale 0 to 100, 0 is no effect and 100 is complete control
[11] = 62 g ai/ha, scale 0 to 100 (0 no effect, 100 complete control)
[12] = 125 g ai/ha, scale 0 to 100 (0 no effect, 100 complete control)
[13] = 125 g ai/ha, visual rating on 0 to 100 scale (0 no effect, 100 complete control), approx. 10 days
[14] = 500 g ai/ha, 0 to 100 scale (0 no effect, 100 complete control)
[15] = Postemergence, 125 g ai/ha, visual rating on 0 to 100 scale (0 no effect, 100 complete control), approx. 10 days
[16] = Postemergence, 500 g ai/ha, 0 to 100 scale (0 no effect, 100 complete control)
[17] = Preemergence, 125 g ai/ha, 0 to 100 scale where 0 is no effect and 100 is complete control
[18] = Preemergence, 500 g ai/ha, visual rating on 0 to 100 scale (0 no effect, 100 complete control)
[19] = 125 g ai/ha, 0 to 100 scale, 0 is no effect, 100 is complete control
[20] = Postemergence, 125 g ai/ha, 0 to 100 scale, 0 is no effect, 100 is complete control
[21] = preemergence, 500 g ai/ha, 0 to 100 scale, 0 is no effect and 100 is complete control
[22] = Preemergence, 125 g ai/ha, scale 0 to 100

Compound	Plant response rating, Lambsquarters (lambsquarters; [3])	Lambsquarters plant response rating (lambsquarters; [7])	Lambsquarters plant response rating (lambsquarters; [8])	Plant response rating (scale of 0 to 100), Lambsquarters (lambsquarters; Preemergence, 250 g ai/ha)	Galium plant response rating (galium; [10])	Galium plant response rating (galium; [11])	Plant response rating (scale of 0 to 100), Galium (galium)	Plant response rating, Blackgrass (blackgrass; [13])	Plant response rating, Blackgrass (blackgrass; [14])	Plant response rating, Barnyardgrass (barnyardgrass [1]; [15])	Plant response rating, Barnyardgrass (barnyardgrass [1]; [16])	Plant response rating, Barnyardgrass (barnyardgrass [1]; [17])	Barnyardgrass plant response rating (barnyardgrass [1]; [18])	Plant response rating, Corn (corn; [13])	Plant response rating, Corn (corn; [14])	Plant response rating, Kochia (kochia; [15])	Plant response rating, Kochia (kochia; [16])	Plant response rating, Kochia (kochia; [17])	Kochia plant response rating (kochia; [18])	Plant response rating, Barnyardgrass (barnyardgrass [2])	other results
CN1CC(c2ccc(F)c(F)c2)C(C(=O)Nc2cccc(F)c2F)C1=O (centres unmarked) [Compound 303]	35	55	60	80	90	0	85	60	70	80	90	90	90	50	70	50	80	70	80	80	Plant response rating, Lambsquarters (lambsquarters; [4]): 85; Plant response rating, Lambsquarters (lambsquarters; [5]): 65; Plant response rating, Lambsquarters (lambsquarters; [6]): 80; Plant response rating, Lambsquarters (lambsquarters; [9]): 65; Plant response rating, Galium (galium; [12]): 85
CN1CC(c2cccc(C(F)(F)F)c2)C(C(=O)Nc2cccc(F)c2F)C1=O (centres unmarked) [Compound 305]	60	60	70	75	80	80	90	60	70	80	90	80	90	70	70	30	70	70	70	75	Plant response rating, Lambsquarters (lambsquarters; [4]): 35; Plant response rating, Lambsquarters (lambsquarters; [5]): 50; Plant response rating, Lambsquarters (lambsquarters; [6]): 65; Plant response rating, Lambsquarters (lambsquarters; [9]): 70; Plant response rating, Galium (galium; [12]): 90
O=C1NCC(c2cc(F)cc(F)c2)C1C(=O)Nc1ccccc1Cl (racemic) [Compound 280]	–	0	0	10	0	0	85	–	0	–	90	80	–	–	0	–	0	0	–	65	Plant response rating, Lambsquarters (lambsquarters; [9]): 10; Plant response rating, Galium (galium; [12]): 0; Plant response rating, Blackgrass (blackgrass; [19]): 0; Plant response rating, Barnyardgrass (barnyardgrass [1]; [20]): 80; Plant response rating, Barnyardgrass (barnyardgrass [1]; [21]): 80; Plant response rating, Corn (corn; [19]): 0; Plant response rating, Kochia (kochia; [20]): 0; Plant response rating, Kochia (kochia; [21]): 0
CN1CC(c2ccc(C(F)(F)F)cc2)C(C(=O)Nc2cccc(F)c2F)C1=O (centres unmarked) [Compound 306]	60	55	65	80	90	60	90	50	60	80	80	90	90	50	70	30	70	70	80	75	Plant response rating, Lambsquarters (lambsquarters; [4]): 70; Plant response rating, Lambsquarters (lambsquarters; [5]): 90; Plant response rating, Lambsquarters (lambsquarters; [6]): 75; Plant response rating, Lambsquarters (lambsquarters; [9]): 75; Plant response rating, Galium (galium; [12]): 90
O=C1NCC(c2cccc(OC(F)F)c2)C1C(=O)Nc1ccccc1F (centres unmarked) [Compound 323]	10	40	50	95	0	0	85	40	60	90	90	90	90	70	90	40	90	50	80	80	Plant response rating, Lambsquarters (lambsquarters; [4]): 10; Plant response rating, Lambsquarters (lambsquarters; [5]): 65; Plant response rating, Lambsquarters (lambsquarters; [6]): 65; Plant response rating, Lambsquarters (lambsquarters; [22]): 75; Plant response rating, Galium (galium; 125 g ai/ha, scale 0 to 100): 85
CC(C)c1cccc(C2CNC(=O)C2C(=O)Nc2cccc(F)c2F)c1 (centres unmarked) [Compound 319]	–	60	65	75	95	70	85	40	50	90	90	90	90	40	80	30	50	60	80	70	Plant response rating, Lambsquarters (lambsquarters; [22]): 65; Plant response rating, Galium (galium; 125 g ai/ha, scale 0 to 100): 80
O=C1NCC(c2ccc(OC(F)F)cc2)C1C(=O)Nc1cccc(F)c1F (racemic) [Compound 350]	–	–	90	90	–	85	90	50	50	70	90	90	90	20	40	70	–	80	80	60	Plant response rating, Lambsquarters (lambsquarters; [22]): 90; Plant response rating, Galium (galium; 125 g ai/ha, scale 0 to 100): 90; Plant response rating, Galium (galium; 31 g ai/ha, scale 0 to 100): 30
